Where “and” joins values, the source holds several entries; their conditions need not be identical. Identical values can stand only once.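 Protocol summary: plate cells (96-well), add compound at 5 concentrations, incubate 48 h, interpolate endpoints linearly. GI50 marks 50% less growth. TGI: total growth inhibition.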
Columns and labels:
Test in all cases: inhibition of tumour cell growth, NCI panel, 48 h
NCI-H226 lung = tested on: NCI-H226 lung
TK-10 renal = tested on: TK-10 renal
A549 NSCLC = tested on: A549 NSCLC
IGROV1 ovarian = tested on: IGROV1 ovarian
PC-3 prostate = tested on: PC-3 prostate
ACHN renal = tested on: ACHN renal
OVCAR-3 ovarian = tested on: OVCAR-3 ovarian
KM12 colon = tested on: KM12 colon
HCT-116 colon = tested on: HCT-116 colon
HS 578T breast = tested on: HS 578T breast
SF-268 CNS = tested on: SF-268 CNS
BT-549 breast = tested on: BT-549 breast
MDA-MB-231 breast = tested on: MDA-MB-231 breast
NCI-H522 lung = tested on: NCI-H522 lung
RPMI-8226 leukemia = tested on: RPMI-8226 leukemia

Compound	TGI (NCI-H226 lung)	TGI (TK-10 renal)	TGI (A549 NSCLC)	TGI (IGROV1 ovarian)	TGI (PC-3 prostate)	TGI (ACHN renal)	TGI (OVCAR-3 ovarian)	TGI (KM12 colon)	TGI (HCT-116 colon)	TGI (HS 578T breast)	TGI (SF-268 CNS)	TGI (BT-549 breast)	TGI (MDA-MB-231 breast)	TGI (NCI-H522 lung)	TGI (RPMI-8226 leukemia)	GI50 (PC-3 prostate) [µM]	GI50 (HS 578T breast) [µM]	GI50 (BT-549 breast)	GI50 (MDA-MB-231 breast) [µM]
Cc1nc(Nc2nc3ccccc3[nH]2)[nH]c(=O)c1CCO	> 96 µM	> 81.4 µM	> 100 µM	> 57 µM	> 100 µM	> 100 µM	> 100 µM	> 100 µM	> 100 µM	> 100 µM	> 100 µM	> 100 µM	> 100 µM	> 100 µM					
C(=N/NC1=NCCN1)/c1c2ccccc2c(/C=N\NC2=NCCN2)c2ccccc12	0.352 µM and 0.239 µM and 0.445 µM	4.73 µM and 12.9 µM	0.258 µM and 1.37 µM and 1.12 µM	0.661 µM and 3.09 µM and 4.75 µM	0.348 µM and 0.422 µM	1.26 µM and 3.97 µM	0.561 µM and 0.449 µM and 1.75 µM	0.816 µM and 0.96 µM and 2 µM	0.468 µM and 1.18 µM and 1.21 µM	0.262 µM and 0.591 µM	0.558 µM and 0.722 µM and 0.747 µM	0.892 µM and 0.347 µM	1.66 µM and 12.5 µM	0.214 µM and 0.262 µM and 0.387 µM	0.798 µM and 2.11 µM and 1.26 µM	0.0776	0.0844	0.244 µM and 0.096 µM	0.459
C[N+]12CCCCC1C(CN1C(=O)c3ccccc3C1=O)CCC2 (stereo unspecified)	> 100 µM	> 100 µM	> 100 µM	> 100 µM	> 100 µM	> 100 µM	> 100 µM	> 100 µM	> 100 µM	> 100 µM	> 100 µM	> 100 µM	> 100 µM	> 100 µM	> 100 µM				
NCCCCCNOCCCN	> 100 µM	> 100 µM	> 100 µM	> 100 µM	> 100 µM	> 100 µM	> 100 µM	> 100 µM	> 100 µM	> 100 µM	> 100 µM	> 100 µM	> 100 µM	> 100 µM	> 100 µM				
Cc1ccc(-n2cc(-c3ccc(Cl)cc3)c(C#N)c2N)cc1	31.7 µM	28.2 µM	43.2 µM	29.9 µM	25.4 µM	50 µM	29.1 µM		27.1 µM	17.2 µM	42.3 µM	32.1 µM	28.7 µM	24.7 µM					
O=C(O)CO/N=C1/C(c2c(O)[nH]c3ccccc23)=Nc2ccccc21		> 100 µM	> 100 µM	> 100 µM	> 100 µM	> 100 µM	69.9 µM	> 100 µM	> 100 µM	> 100 µM	> 100 µM	> 100 µM	> 100 µM	> 100 µM	> 100 µM				
O=C1Nc2ccc(Br)cc2/C1=C/C(=O)c1ccccc1	43.8 µM	3.7 µM	> 62.6 µM	13.3 µM	26.9 µM	3.32 µM	18.2 µM	23 µM	9.04 µM	> 55.4 µM	50.8 µM	24.6 µM	29.5 µM	5.17 µM	> 23.6 µM				
Nc1cc(N)c(N=Nc2cccc3c(S(=O)(=O)O)cccc23)cc1N=Nc1cc([N+](=O)[O-])ccc1O		> 100 µM	67.9 µM	> 100 µM	> 100 µM	78.1 µM	> 100 µM	> 100 µM	> 100 µM	> 100 µM	54.8 µM	> 100 µM	> 100 µM	61.4 µM	> 100 µM				
CC(C)OP(=O)(OC(C)C)C(Nc1cccc(C(F)(F)F)c1)c1ccccc1 (stereo unspecified)	> 100 µM	> 100 µM	> 100 µM	> 100 µM	> 100 µM	> 100 µM	> 100 µM	> 100 µM	> 100 µM	> 100 µM	> 100 µM	> 100 µM	> 100 µM	> 100 µM	87.3 µM				
CC/C=C/C(/C=C/C[C@]1(CC)C[C@H](CC)[C@H](CC(=O)O)OO1)CC (stereo partly specified)	57.9 µM	3.69 µM	3.99 µM	0.899 µM	3.69 µM	3.61 µM	4.17 µM	3.68 µM	6.81 µM	4.85 µM	9.57 µM	18.3 µM	14.3 µM	3.44 µM	4.43 µM				
CC(Cc1ccc2c(c1)OCO2)N(C)C(=O)C1=CCN(C)CC1 (stereo unspecified)	> 100 µM	> 100 µM	> 100 µM	> 100 µM	> 100 µM	> 100 µM	> 100 µM	> 100 µM	> 100 µM	> 100 µM	> 100 µM	> 100 µM	> 100 µM	> 100 µM	> 100 µM				
C=C(CC)C[C@@H]1C[C@]2(C(=O)OC)c3[nH]c4ccccc4c3CCN2C1=O		> 100 µM	32.4 µM	58 µM	42.8 µM	76 µM	27.9 µM	58.9 µM	29.6 µM	41.1 µM	51.9 µM	43.7 µM	54.7 µM	36.7 µM					
Nc1nc(NCCOCP(=O)(O)O)c(N)c(=O)[nH]1	> 100 µM	> 100 µM	> 100 µM	> 100 µM	> 100 µM	> 100 µM	> 100 µM	> 100 µM	> 100 µM	> 100 µM	> 100 µM	> 100 µM	> 100 µM		> 100 µM				
O=C1c2c(ccc3c2CCCC3)CC1Cc1ccc2c(c1)CCCC2 (stereo unspecified)	> 100 µM	> 100 µM	> 100 µM	> 100 µM	> 100 µM	> 100 µM	> 100 µM	> 100 µM	> 100 µM	> 100 µM	> 100 µM	> 100 µM	> 100 µM		> 100 µM				
COc1cc2c(cc1OCCCCN1CCN(CCCCOc3cc4c(cc3OC)C(=O)N3CCC[C@H]3C=N4)CC1)N=C[C@@H]1CCCN1C2=O	0.0891 µM	0.263 µM	> 100 µM		3.12 µM	> 100 µM	0.0636 µM	0.204 µM	22.5 µM	> 100 µM	16.5 µM	0.843 µM	0.182 µM	1.49 µM	< 0.0241 µM				
CSc1nc(C)c(CCCl)c(Cl)n1		> 100 µM	> 100 µM	> 100 µM	> 100 µM	> 100 µM	> 100 µM		> 100 µM	> 100 µM	> 100 µM	> 100 µM	> 100 µM	49.9 µM					

— PubChem BioAssay (NCI)
